# Assay results as given in patent US7452887B2, “Quinoline- and isoquinoline-based compounds exhibiting ATP-utilizing enzyme inhibitory activity, and compositions, and uses thereof” (Amphora Discovery Corporation, priority 2004, dated 2008).
# How the values were obtained:
# Experiment in all cases: HTS ATP-utilizing enzyme assay, off-chip mobility-shift (Caliper HTS 250)
# Assay type in all cases: biochemical
# Conditions in all cases: test compound 10 μM, kinase listed = active (greater than six-sigma from the mean activity of inactive compounds)
# NEK2 = biological target: T1, NEK2 (Homo sapiens, UniProt P51955)
# T1 sequence (P51955 1-445): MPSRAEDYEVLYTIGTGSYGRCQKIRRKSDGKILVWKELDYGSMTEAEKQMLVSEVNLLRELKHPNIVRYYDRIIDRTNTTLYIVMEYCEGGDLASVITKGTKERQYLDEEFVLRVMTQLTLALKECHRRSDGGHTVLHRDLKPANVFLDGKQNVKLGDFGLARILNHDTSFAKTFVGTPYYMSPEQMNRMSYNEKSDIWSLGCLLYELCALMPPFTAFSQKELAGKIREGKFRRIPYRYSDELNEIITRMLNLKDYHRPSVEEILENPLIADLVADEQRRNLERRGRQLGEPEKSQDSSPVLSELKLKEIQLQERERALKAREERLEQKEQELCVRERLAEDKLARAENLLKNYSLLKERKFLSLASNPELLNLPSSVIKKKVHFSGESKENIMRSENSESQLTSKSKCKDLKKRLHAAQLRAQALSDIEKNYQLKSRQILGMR
# Description: (§1) The following procedures describe the reagent and plate preparation for a HTS of an ATP-utilizing enzyme, such as a protein kinase, run in an off-chip mobility-shift assay format. The following provides an HTS protocol for running a protein kinase HTS screen on a Caliper HTS 250 microfluidics system. The following parameters are dependent on the protein kinase used and can be determined by one skilled in the art as part of a typical assay development process. For example, the peptide substrate used can be identified from the current literature, by screening a peptide library of potential protein kinase substrates, or by other applicable means accepted in the field.
# (§2) The following table provides typical screen assay parameters appropriate for a Caliper HTS 250 microfluidics system.
# (§3) The reagents and buffers listed in the following table are generally applicable for developing and running an HTS screen on a human protein kinase using the Caliper HTS 250 system.
# (§4) The following reagents were prepared using the previously described buffers.
# (§5) A 2× Master Buffer solution was prepared by combining 200 mL of 1 M HEPES, pH 7.5, 2 mL of 10% Triton X-100, 20 mL of 10% BSA, and 778 mL of H2O.
# (§6) A 2.5× Substrate Buffer solution was prepared by combining 177.408 mL of 2× Master Buffer, 0.887 mL of 1 mM peptide-X, and 176.521 mL of H2O.
# (§7) A 1.55× Termination Buffer solution was prepared by combining 762.05 mL of 2× Master Buffer, 95.1 mL of 0.5 M EDTA, and 666.94 mL of H2O.
# (§8) A TCB Buffer solution was prepared by combining 125 mL of 2× Master Buffer, 10 mL of 0.5 M EDTA, 6.25 mL of 4% coating reagent, 1.01 mL of 100% DMSO, and 107.74 mL H2O.
# (§9) A Dye Trough solution was prepared by combining 0.5 μL of peptide-X, and 2,999.5 μL of IX Master Buffer.
# (§10) A 1.06× Assay Buffer solution was prepared by combining 205.15 mL of 2× Master Buffer, and 181.92 mL of H2O.
# (§11) Assays to determine the kinase inhibitory activity of compounds of the present disclosure were performed using a Caliper HTS 250 microfluidics device, Greiner U-bottom assay plates, a Multidrop for transfer of reagents, and Biomek FX (AMNCBM03) software. Initially, 2.4 μL of a 1 mM solution of a test compound in 100% DMSO was added to a well of the Greiner U-bottom plate. A single Greiner U-bottom plate having 24×16 wells could include multiple test compounds. Next, […] of 1.06× Assay Buffer was added to each well of the assay plate. Using the Biomek FX, 10 μL of 0.5 M EDTA was added by the span-8 to wells, indicated as 100% Control and 2.4 μL of 100% DMSO was added by the span-8 to wells, indicated as 0% Control. Using the Multidrop, 10 μL of 2.5× Enzyme Buffer, followed by 10 μL of 2.5× Substrate Buffer was added to each well of the assay plate. The total reaction volume in each well was 25 μL, and the concentration of the test compound was 10 μM. The assay plate was incubated for 2.5 hrs at 20° C. to 22° C. After the incubation period, using the Multidrop, 45 μL of 1.55× Termination Buffer was added to each well of the assay plate to stop the reaction. The inhibition of the ATP-utilizing enzyme, such as a particular protein kinase, was determined by measuring the ratio of the peptide substrate to phosphorylated product for each well of the assay plate using the Caliper HTS 250 system.
# (§12) The use of six-sigma statistical limits represents a conservative method for declaring potential hits among targets. The six-sigma activity, as well as the mean population activity, can be different for each target enzyme. This method has an expected false positive rate, from an in-control measurement process, of one in one million.
# PRAK = biological target: T2, PRAK (Homo sapiens, UniProt Q8IW41)
# T2 sequence (Q8IW41 1-473): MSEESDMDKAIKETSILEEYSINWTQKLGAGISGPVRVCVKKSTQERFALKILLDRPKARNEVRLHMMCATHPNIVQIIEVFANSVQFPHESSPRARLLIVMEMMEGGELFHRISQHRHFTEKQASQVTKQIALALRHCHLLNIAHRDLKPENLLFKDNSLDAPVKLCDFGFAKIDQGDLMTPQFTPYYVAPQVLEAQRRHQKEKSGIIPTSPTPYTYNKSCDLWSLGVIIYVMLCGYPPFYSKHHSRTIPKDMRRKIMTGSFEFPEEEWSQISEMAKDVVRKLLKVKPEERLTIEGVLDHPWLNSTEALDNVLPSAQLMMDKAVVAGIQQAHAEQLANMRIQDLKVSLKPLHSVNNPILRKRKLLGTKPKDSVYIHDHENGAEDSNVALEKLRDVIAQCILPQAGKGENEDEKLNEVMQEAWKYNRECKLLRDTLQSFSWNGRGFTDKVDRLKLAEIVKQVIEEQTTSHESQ
# Description: as §1, §2, §3, §4, §5, §6, §7, §8, §9, §10, §11, §12
# MAPKAPK2 = MAPKAPK2 (Homo sapiens, UniProt P49137)
# How it was run: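 Phosphorylation of a peptide substrate was quantified by Caliper mobility-shift separation of substrate and product after 2.5 h at 20-22 °C, with compounds tested at 10 μM. Inhibition was normalized to EDTA-quenched (100%) and DMSO (0%) controls; six-sigma thresholds flagged actives.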
# C-TAK1 = C-TAK1 (Homo sapiens, UniProt P27448)
# Description: as §1, §2, §3, §4, §5, §6, §7, §8, §9, §10, §11, §12
# MAPKAPK2, sequence (P49137 whole entry): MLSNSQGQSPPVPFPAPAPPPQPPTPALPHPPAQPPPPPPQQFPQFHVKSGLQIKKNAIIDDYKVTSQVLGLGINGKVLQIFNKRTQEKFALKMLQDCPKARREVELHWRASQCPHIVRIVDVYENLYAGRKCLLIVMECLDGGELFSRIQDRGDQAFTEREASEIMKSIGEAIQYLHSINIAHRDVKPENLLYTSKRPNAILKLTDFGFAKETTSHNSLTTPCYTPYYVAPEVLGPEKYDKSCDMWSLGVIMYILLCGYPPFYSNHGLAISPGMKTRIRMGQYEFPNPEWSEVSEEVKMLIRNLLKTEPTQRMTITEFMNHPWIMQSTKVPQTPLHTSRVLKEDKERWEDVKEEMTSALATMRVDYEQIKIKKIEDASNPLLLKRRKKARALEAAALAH
# C-TAK1, sequence (P27448 whole entry): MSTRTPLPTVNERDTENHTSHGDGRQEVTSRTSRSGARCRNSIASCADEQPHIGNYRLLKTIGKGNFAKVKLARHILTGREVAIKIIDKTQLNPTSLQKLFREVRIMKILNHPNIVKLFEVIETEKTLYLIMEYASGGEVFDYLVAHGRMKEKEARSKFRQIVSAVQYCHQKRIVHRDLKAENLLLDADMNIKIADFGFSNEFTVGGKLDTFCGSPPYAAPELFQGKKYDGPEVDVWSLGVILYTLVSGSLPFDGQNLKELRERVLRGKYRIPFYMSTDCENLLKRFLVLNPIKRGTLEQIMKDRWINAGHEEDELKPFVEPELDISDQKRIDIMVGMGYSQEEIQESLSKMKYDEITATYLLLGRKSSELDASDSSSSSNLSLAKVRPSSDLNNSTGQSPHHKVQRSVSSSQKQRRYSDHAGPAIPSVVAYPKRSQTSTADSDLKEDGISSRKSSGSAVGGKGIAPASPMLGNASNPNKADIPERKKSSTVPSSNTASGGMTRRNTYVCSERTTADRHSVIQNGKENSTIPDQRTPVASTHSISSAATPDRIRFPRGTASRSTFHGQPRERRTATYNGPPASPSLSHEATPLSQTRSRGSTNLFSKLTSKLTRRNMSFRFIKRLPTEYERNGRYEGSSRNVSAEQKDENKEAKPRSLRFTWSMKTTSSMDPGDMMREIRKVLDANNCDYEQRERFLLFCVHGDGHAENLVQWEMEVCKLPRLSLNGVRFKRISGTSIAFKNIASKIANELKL
Compound,Activity (NEK2),Activity (PRAK),Activity (MAPKAPK2),Activity (C-TAK1)
"CN1CCN(c2ccc(Nc3ccnc4ccc(-c5cc(F)ccc5F)cc34)cc2)CC1 [6-(2,5-difluorophenyl)-N-(4-(4-methylpiperazin-1-yl)phenyl)quinolin-4-amine]",NEK2,PRAK,MAPKAPK2,
CCc1ccccc1-c1ccc2nccc(Nc3ccc(N4CCN(C)CC4)cc3)c2c1 [6-(2-ethylphenyl)-N-(4-(4-methylpiperazin-1-yl)phenyl)quinolin-4-amine],NEK2,PRAK,MAPKAPK2,
CN1CCN(c2ccc(Nc3ccnc4ccc(-c5cccc(Cl)c5)cc34)cc2)CC1 [6-(3-chlorophenyl)-N-(4-(4-methylpiperazin-1-yl)phenyl)quinolin-4-amine],NEK2,PRAK,MAPKAPK2,
"Cc1cccc(-c2ccc3nccc(Nc4ccc(N5CCN(C)CC5)cc4)c3c2)c1C [6-(2,3-dimethylphenyl)-N-(4-(4-methylpiperazin-1-yl)phenyl)quinolin-4-amine]",NEK2,PRAK,MAPKAPK2,
"COc1ccc(-c2ccc3nccc(Nc4ccc(N5CCN(C)CC5)cc4)c3c2)c(OC)c1 [6-(2,4-dimethoxyphenyl)-N-(4-(4-methylpiperazin-1-yl)phenyl)quinolin-4-amine]",NEK2,PRAK,MAPKAPK2,
"CN1CCN(c2ccc(Nc3ccnc4ccc(-c5ccc(F)cc5F)cc34)cc2)CC1 [6-(2,4-difluorophenyl)-N-(4-(4-methylpiperazin-1-yl)phenyl)quinolin-4-amine]",NEK2,PRAK,MAPKAPK2,
CN1CCN(c2ccc(Nc3ccnc4ccc(-c5ccc(C#N)cc5)cc34)cc2)CC1 [4-(4-(4-(4-methylpiperazin-1-yl)phenylamino)quinolin-6-yl)benzonitrile],NEK2,PRAK,MAPKAPK2,
"CN1CCN(c2ccc(Nc3ccnc4ccc(-c5ccc(Cl)cc5Cl)cc34)cc2)CC1 [6-(2,4-dichlorophenyl)-N-(4-(4-methylpiperazin-1-yl)phenyl)quinolin-4-amine]",NEK2,PRAK,MAPKAPK2,
COc1ccccc1-c1ccc2nccc(Nc3ccc(N4CCN(C)CC4)cc3)c2c1 [6-(2-methoxyphenyl)-N-(4-(4-methylpiperazin-1-yl)phenyl)quinolin-4-amine],NEK2,PRAK,MAPKAPK2,
OCCCN1CCN(c2ccc(Nc3ccnc4ccc(-c5ccccc5)cc34)cc2)CC1 [3-(4-(4-(6-phenylquinolin-4-ylamino)phenyl)piperazin-1-yl)propan-1-ol],,PRAK,MAPKAPK2,
"Cc1ccc(-c2ccc3nccc(Nc4ccc(N5CCN(C)CC5)cc4)c3c2)cc1C [6-(3,4-dimethylphenyl)-N-(4-(4-methylpiperazin-1-yl)phenyl)quinolin-4-amine]",NEK2,PRAK,MAPKAPK2,
"CN1CCN(c2ccc(Nc3ccnc4ccc(-c5cc(F)cc(F)c5)cc34)cc2)CC1 [6-(3,5-difluorophenyl)-N-(4-(4-methylpiperazin-1-yl)phenyl)quinolin-4-amine]",,PRAK,MAPKAPK2,

# The next lines start with the values.
Activity (NEK2),Activity (PRAK),Activity (MAPKAPK2),Activity (C-TAK1),Compound
NEK2,PRAK,MAPKAPK2,,CC(C)c1ccc(-c2ccc3nccc(Nc4ccc(N5CCN(C)CC5)cc4)c3c2)cc1 [6-(4-isopropylphenyl)-N-(4-(4-methylpiperazin-1-yl)phenyl)quinolin-4-amine]
NEK2,PRAK,MAPKAPK2,,Cc1cccc(-c2ccc3nccc(Nc4ccc(N5CCN(C)CC5)cc4)c3c2)c1 [N-(4-(4-methylpiperazin-1-yl)phenyl)-6-m-tolylquinolin-4-amine]
,PRAK,,C-TAK1,CCCCCc1ccc(-c2ccc3nccc(Nc4ccc(N5CCN(C)CC5)cc4)c3c2)cc1 [N-(4-(4-methylpiperazin-1-yl)phenyl)-6-(4-pentylphenyl)quinolin-4-amine]
,PRAK,MAPKAPK2,,COc1ccc(C(C)C)cc1-c1ccc2nccc(Nc3ccc(N4CCN(C)CC4)cc3)c2c1 [6-(5-isopropyl-2-methoxyphenyl)-N-(4-(4-methylpiperazin-1-yl)phenyl)quinolin-4-amine]
,PRAK,MAPKAPK2,,CN1CCN(c2ccc(Nc3ccnc4ccc(-c5cccc(OC(F)(F)F)c5)cc34)cc2)CC1 [N-(4-(4-methylpiperazin-1-yl)phenyl)-6-(3-(trifluoromethoxy)phenyl)quinolin-4-amine]
NEK2,PRAK,MAPKAPK2,,Cc1ccc(-c2ccc3nccc(Nc4ccc(N5CCN(C)CC5)cc4)c3c2)cc1 [N-(4-(4-methylpiperazin-1-yl)phenyl)-6-p-tolylquinolin-4-amine]
,,MAPKAPK2,C-TAK1,CN1CCN(c2ccc(Nc3ccnc4ccc(-c5ccc(C6CCCCC6)cc5)cc34)cc2)CC1 [6-(4-cyclohexylphenyl)-N-(4-(4-methylpiperazin-1-yl)phenyl)quinolin-4-amine]
,PRAK,MAPKAPK2,,CCOc1ccc(-c2ccc3nccc(Nc4ccc(N5CCN(C)CC5)cc4)c3c2)cc1 [6-(4-ethoxyphenyl)-N-(4-(4-methylpiperazin-1-yl)phenyl)quinolin-4-amine]
,PRAK,MAPKAPK2,,CC(C)c1cccc(-c2ccc3nccc(Nc4ccc(N5CCN(C)CC5)cc4)c3c2)c1 [6-(3-isopropylphenyl)-N-(4-(4-methylpiperazin-1-yl)phenyl)quinolin-4-amine]
